Assay results as given in patent US20160120863A1, “SLC2A TRANSPORTER INHIBITORS” (IOMET PHARMA LTD., priority 2013, published 2016).

Molecular target: T1, human GLUT1 (Homo sapiens, UniProt P11166)
T1 construct: expressed in transfected cells
T1 sequence (P11166 1-492): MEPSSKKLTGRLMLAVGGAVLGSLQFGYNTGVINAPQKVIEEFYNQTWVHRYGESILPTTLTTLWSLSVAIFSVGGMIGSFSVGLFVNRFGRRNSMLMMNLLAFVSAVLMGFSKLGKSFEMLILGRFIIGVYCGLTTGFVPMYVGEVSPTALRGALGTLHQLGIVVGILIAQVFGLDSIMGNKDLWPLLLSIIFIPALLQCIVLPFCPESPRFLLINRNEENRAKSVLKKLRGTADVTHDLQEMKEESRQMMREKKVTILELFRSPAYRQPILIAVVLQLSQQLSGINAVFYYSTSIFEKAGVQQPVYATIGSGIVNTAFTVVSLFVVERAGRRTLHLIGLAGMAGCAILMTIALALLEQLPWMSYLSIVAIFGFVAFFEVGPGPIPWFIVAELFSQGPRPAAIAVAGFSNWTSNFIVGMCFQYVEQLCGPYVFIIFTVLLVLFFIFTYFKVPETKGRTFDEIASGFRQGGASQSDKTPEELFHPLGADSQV
Assay: [3H]-deoxy-D-glucose uptake assay, GLUT1
Assay type: cell-based
Conditions: [3H]-deoxy-D-glucose uptake in HEK293 cells stably expressing human GLUT1
Procedure: HEK293 cells were engineered to stably express either human GLUT1, GLUT2, GLUt3 or GLUT4 by transfection with the pReceiver-Lv105 plasmid, containing either hGLUT1, hGLUT2, hGLUT3, or hGLUT4 gene constructs with lipofectamine 2000, hGLUT1- hGLUT2- hGLUT3- or hGLUT4-overexpressing polyclonal populations were isolated under purinomycin selective pressure (1 μg/ml) and maintained in Dulbecco's modified Eagle's medium supplemented with 1 μg/ml purinomycin+10% foetal bovine serum (FBS).
60,000 cells per well were seeded overnight into poly-D-lysine coasted 96-well plates. […] 90 μl of test compounds were added in glucose-free uptake buffer and cells were incubated at 37° C. for 30 min.
Cells were then washed twice with ice-cold PBS and 100 μl of Microscint-20 was added per well. Glucose uptake was quantified with a scintillation counter. The half maximal inhibitory concentration (IC50) (a measure of the effectiveness of the test compound in inhibiting glucose uptake) was determined.

Compound | GLUT1 pIC50
Clc1ccc(-c2nc3ccc(-c4ccccc4)cn3c2CN2CCOCC2)cc1 [Compound 1] | ++ (pIC50 5.00-5.99)
Clc1ccc(-c2nc3ccccn3c2CN2CCOCC2)cc1 [Compound 3] | ++ (pIC50 5.00-5.99)
Clc1ccc(-c2nc3ccc(Cl)cn3c2CN2CCSCC2)cc1 [Compound 4] | + (pIC50 4.00-4.99)
Clc1ccc(-c2nc3ccc(Cl)cn3c2CN2CCCCC2)cc1 [Compound 5] | + (pIC50 4.00-4.99)
Cc1ccc2nc(-c3ccccc3)c(CN3CCSCC3)n2c1 [Compound 6] | +− (pIC50 < 4.00)
Cc1ccc2nc(-c3ccccc3)c(CN3CCN(c4ccccc4F)CC3)n2c1 [Compound 7] | + (pIC50 4.00-4.99)
CCS(=O)(=O)N1CCN(Cc2c(-c3cccc([N+](=O)[O-])c3)nc3ccc(-c4ccccc4)cn23)CC1 [Compound 9] | ++ (pIC50 5.00-5.99)
Cc1ccc(-c2cn3cc(-c4ccccc4)ccc3n2)cc1 [Compound 11] | + (pIC50 4.00-4.99)
O=[N+]([O-])c1ccc(-c2nc3ccc(-c4ccccc4)cn3c2CN2CCNCC2)cc1 [Compound 12] | + (pIC50 4.00-4.99)
O=C(c1cccs1)N1CCN(Cc2c(-c3ccc([N+](=O)[O-])cc3)nc3ccc(-c4ccccc4)cn23)CC1 [Compound 13] | +++ (pIC50 ≧ 6.00)
O=C(c1ccco1)N1CCN(Cc2c(-c3cccc([N+](=O)[O-])c3)nc3ccc(-c4ccccc4)cn23)CC1 [Compound 15] | ++ (pIC50 5.00-5.99)
COc1cccc(-c2nc3ccc(-c4ccccc4)cn3c2CN2CCN(C(=O)C3CCC3)CC2)c1 [Compound 16] | ++ (pIC50 5.00-5.99)
COCCNC(=O)CCc1c(-c2ccc([N+](=O)[O-])cc2)nc2ccc(-c3ccccc3)cn12 [Compound 17] | +− (pIC50 < 4.00)
O=C(COCc1ccccc1)N1CCN(Cc2c(-c3ccc(Cl)cc3)nc3ccc(-c4ccccc4)cn23)CC1 [Compound 18] | +++ (pIC50 ≧ 6.00)
Cc1cccc(C)c1NC(=O)N1CCN(Cc2c(-c3ccc(Cl)cc3)nc3ccc(-c4ccccc4)cn23)CC1 [Compound 19] | +++ (pIC50 ≧ 6.00)
COc1cccc(-c2nc3ccc(-c4ccccc4)cn3c2CN2CCN(C(=O)c3cccs3)CC2)c1 [Compound 20] | +++ (pIC50 ≧ 6.00)
O=C(c1cccc([N+](=O)[O-])c1)N1CCN(Cc2c(-c3ccc(Cl)cc3)nc3ccc(-c4ccccc4)cn23)CC1 [Compound 21] | ++ (pIC50 5.00-5.99)
O=C(C1CCCC1)N1CCN(Cc2c(-c3ccc([N+](=O)[O-])cc3)nc3ccc(-c4ccccc4)cn23)CC1 [Compound 24] | +++ (pIC50 ≧ 6.00)
CCS(=O)(=O)N1CCN(Cc2c(-c3cccc(OC)c3)nc3ccc(-c4ccccc4)cn23)CC1 [Compound 25] | ++ (pIC50 5.00-5.99)

Compound | GLUT1 pIC50
COc1cccc(-c2nc3ccc(-c4ccccc4)cn3c2CN2CCN(C(=O)C3CC3)CC2)c1 [Compound 26] | ++ (pIC50 5.00-5.99)
Clc1ccc(-c2nc3ccc(Cl)cn3c2CN2CCOCC2)cc1 [Compound 27] | ++ (pIC50 5.00-5.99)
CC1CN(Cc2c(-c3ccccc3)nc3ccc(Cl)cn23)CC(C)O1 (stereo not drawn) [Compound 28] | ++ (pIC50 5.00-5.99)
CC1CN(Cc2c(-c3ccccc3)nc3ccccn23)CC(C)O1 (stereo not drawn) [Compound 29] | + (pIC50 4.00-4.99)
Cc1ccc2nc(-c3ccccc3)c(CN3CCNC(=O)C3)n2c1 [Compound 30] | +− (pIC50 < 4.00)
O=C(C1CCC1)N1CCN(Cc2c(-c3cccc([N+](=O)[O-])c3)nc3ccc(-c4ccccc4)cn23)CC1 [Compound 33] | ++ (pIC50 5.00-5.99)
COc1cccc(-c2nc3ccc(-c4ccccc4)cn3c2CN2CCN(C(=O)CC(C)C)CC2)c1 [Compound 34] | ++ (pIC50 5.00-5.99)
COc1cccc(-c2nc3ccc(-c4ccccc4)cn3c2CN2CCN(C(=O)C3CCCC3)CC2)c1 [Compound 35] | +++ (pIC50 ≧ 6.00)
COc1ccc(C(=O)N2CCN(Cc3c(-c4ccc(OC)cc4)nc4ccc(-c5ccccc5)cn34)CC2)cc1 [Compound 36] | +++ (pIC50 ≧ 6.00)
CC(C)(C)CC(=O)N1CCN(Cc2c(-c3ccc([N+](=O)[O-])cc3)nc3ccc(-c4ccccc4)cn23)CC1 [Compound 38] | ++ (pIC50 5.00-5.99)
COc1cccc(-c2nc3ccc(-c4ccccc4)cn3c2CN2CCN(C(=O)c3ccccc3Cl)CC2)c1 [Compound 39] | + (pIC50 4.00-4.99)
Cc1ccc(C(=O)N2CCN(Cc3c(-c4ccc(F)cc4)nc4ccc(-c5ccccc5)cn34)CC2)cc1 [Compound 40] | ++ (pIC50 5.00-5.99)
CC(C)(C)NC(=O)N1CCN(Cc2c(-c3ccc(Cl)cc3)nc3ccc(-c4ccccc4)cn23)CC1 [Compound 41] | ++ (pIC50 5.00-5.99)
CC(C)(C)c1ccc(C(=O)N2CCN(Cc3c(-c4ccc(Cl)cc4)nc4ccc(-c5ccccc5)cn34)CC2)cc1 [Compound 42] | + (pIC50 4.00-4.99)
CC(C)CC(=O)N1CCN(Cc2c(-c3ccc(Cl)cc3)nc3ccc(-c4ccccc4)cn23)CC1 [Compound 43] | +++ (pIC50 ≧ 6.00)
O=C(c1ccccc1)N1CCN(Cc2c(-c3ccc(Cl)cc3)nc3ccc(-c4ccccc4)cn23)CC1 [Compound 44] | +++ (pIC50 ≧ 6.00)
O=C(c1ccccc1F)N1CCN(Cc2c(-c3ccc(Cl)cc3)nc3ccc(-c4ccccc4)cn23)CC1 [Compound 45] | +++ (pIC50 ≧ 6.00)
CC(C)(C)CC(=O)N1CCN(Cc2c(-c3ccc(Cl)cc3)nc3ccc(-c4ccccc4)cn23)CC1 [Compound 46] | ++ (pIC50 5.00-5.99)
O=C(C1CCCC1)N1CCN(Cc2c(-c3ccc(Cl)cc3)nc3ccc(-c4ccccc4)cn23)CC1 [Compound 47] | +++ (pIC50 ≧ 6.00)

Compound | GLUT1 pIC50
COc1cccc(-c2nc3ccc(-c4ccccc4)cn3c2CN2CCN(C(=O)c3ccc(F)cc3)CC2)c1 [Compound 49] | +++ (pIC50 ≧ 6.00)
Cc1ccc(-c2nc3ccc(-c4ccccc4)cn3c2CN2CCN(C(=O)c3ccc(F)cc3)CC2)cc1 [Compound 50] | +++ (pIC50 ≧ 6.00)
COc1cccc(-c2nc3ccc(-c4ccccc4)cn3c2CN2CCN(C(=O)c3ccco3)CC2)c1 [Compound 51] | ++ (pIC50 5.00-5.99)
COc1cccc(-c2nc3ccc(-c4ccccc4)cn3c2CN2CCN(C(=O)c3cccc(F)c3)CC2)c1 [Compound 52] | +++ (pIC50 ≧ 6.00)
O=C(c1ccc(F)cc1)N1CCN(Cc2c(-c3ccc(Cl)cc3)nc3ccc(-c4ccccc4)cn23)CC1 [Compound 53] | +++ (pIC50 ≧ 6.00)
COc1cccc(-c2nc3ccc(-c4ccccc4)cn3c2CN2CCN(C(=O)C(C)C)CC2)c1 [Compound 54] | ++ (pIC50 5.00-5.99)
CC(C)C(=O)N1CCN(Cc2c(-c3cccc([N+](=O)[O-])c3)nc3ccc(-c4ccccc4)cn23)CC1 [Compound 55] | ++ (pIC50 5.00-5.99)
O=C(C1CC1)N1CCN(Cc2c(-c3cccc([N+](=O)[O-])c3)nc3ccc(-c4ccccc4)cn23)CC1 [Compound 56] | ++ (pIC50 5.00-5.99)
COCC(=O)N1CCN(Cc2c(-c3cccc(OC)c3)nc3ccc(-c4ccccc4)cn23)CC1 [Compound 57] | ++ (pIC50 5.00-5.99)
CC(C)(C)CC(=O)N1CCN(Cc2c(-c3cccc([N+](=O)[O-])c3)nc3ccc(-c4ccccc4)cn23)CC1 [Compound 58] | + (pIC50 4.00-4.99)
CC(=O)N1CCN(Cc2c(-c3cccc([N+](=O)[O-])c3)nc3ccc(-c4ccccc4)cn23)CC1 [Compound 59] | ++ (pIC50 5.00-5.99)
CC(C)CC(=O)N1CCN(Cc2c(-c3cccc([N+](=O)[O-])c3)nc3ccc(-c4ccccc4)cn23)CC1 [Compound 60] | + (pIC50 4.00-4.99)
CC(=O)N1CCN(Cc2c(-c3ccc(Cl)cc3)nc3ccc(-c4ccccc4)cn23)CC1 [Compound 61] | +++ (pIC50 ≧ 6.00)
CCC(=O)N1CCN(Cc2c(-c3ccc(Cl)cc3)nc3ccc(-c4ccccc4)cn23)CC1 [Compound 62] | +++ (pIC50 ≧ 6.00)
O=C(Cc1ccc(F)cc1)N1CCN(Cc2c(-c3ccc(Cl)cc3)nc3ccc(-c4ccccc4)cn23)CC1 [Compound 63] | ++ (pIC50 5.00-5.99)
O=C(c1ccccc1Cl)N1CCN(Cc2c(-c3ccc(Cl)cc3)nc3ccc(-c4ccccc4)cn23)CC1 [Compound 64] | + (pIC50 4.00-4.99)
COc1cccc(-c2nc3ccc(-c4ccccc4)cn3c2CN2CCN(C(=O)CC(C)(C)C)CC2)c1 [Compound 65] | ++ (pIC50 5.00-5.99)
O=C(C1CCCC1)N1CCN(Cc2c(-c3cccc([N+](=O)[O-])c3)nc3ccc(-c4ccccc4)cn23)CC1 [Compound 66] | ++ (pIC50 5.00-5.99)
Cc1ccc(-c2nc3ccc(-c4ccccc4)cn3c2CN2CCN(C(=O)c3cccs3)CC2)cc1 [Compound 67] | +++ (pIC50 ≧ 6.00)
